Experimental data reported in patent publication US12678488B2, “Batch management method for improving farrowing rate or number of piglets born alive in swine” (priority 2024, dated 2026).

Experiments:
[1] = system: Enpp2, Lpar3 and ptgs2 mRNA (LPA signalling pathway) in the uterus; experiment: Quantitative PCR of key molecules in the LPA signalling pathway in mouse uteri; assay type: in vivo; settings: mice, 10 μg/kg·BW
Procedure: 6-8-week-old ICR female mice acclimatized to the laboratory mouse house environment and in a good condition were selected and divided into a batch farrowing with FTAI model group, a batch farrowing with FTAI+low-dose model group, and a batch farrowing with FTAI+high-dose model group, and 10IU PMSG was injected at 17:00 pm. […] At 7:00-9:00 the next morning, vaginal plugs were examined, and this day was recorded as day 1 (D1) of pregnancy. In the afternoon of day 5 (D5) of pregnancy, 0.4 ml of 1% Chicago blue-normal saline solution was injected into model mice at the caudal vein, and after 3 minutes of systemic circulation, the mice were sacrificed by means of cervical dislocation, the abdominal cavity was immediately cut open, and the abdominal aorta was cut for bleeding. […] Blue dots on the uterus were recorded as embryo implantation sites, the number of implantation sites was counted, and patterns of embryo spacing in different groups were drawn.
Unfixed uteri were isolated for RNA extraction, reverse transcription and quantitative PCR detection of several key target molecules in the LPA signalling pathway, i.e., detection of Enpp2 (a gene for the expression of ATX, the key enzyme of LPA synthesis), Lpar3 (LPA receptor gene), and ptgs2 (a key gene downstream of LPAR). […]

[2] = system: ENPP2, LPAR3 and PTGS2 mRNA (LPA signalling pathway) in the uterus; experiment: Quantitative PCR of key molecules in the LPA signalling pathway in gilt uteri (Example 4); assay type: in vivo, pigs; settings: gilts, 12 μg/kg·BW
Procedure: The gilts in the batch farrowing with FTAI and the gilts in the batch farrowing with FTAI supplementing once with 1-[bis(4-cyanophenyl)methyl]-1,2,4-triazole (12 μg/kg·BW) were slaughtered. The gilts were slaughtered 16 days after mating, with 4 gilts slaughtered per group. By judging the number of corpora lutea on the ovary, the number of ovulated oocytes (each corpus luteum represented an ovulation point) was confirmed.
Uteri were isolated from the gilts for RNA extraction, reverse transcription and quantitative PCR detection of several key molecules in the LPA signalling pathway, i.e., detection of ENPP2 (a gene for the expression of ATX, the key enzyme of LPA synthesis), LPAR3 (LPA receptor gene), and PTGS2 (a key gene downstream of LPAR).

[3] = compared with natural estrus group

SMILES: N#Cc1ccc(C(c2ccc(C#N)cc2)n2cncn2)cc1 [1-[bis(4-cyanophenyl)methyl]-1,2,4-triazole]
- Enpp2, Lpar3 and ptgs2 mRNA levels in the uteri ([1]; compared with batch farrowing with FTAI model group): significantly higher
- Enpp2, Lpar3 and ptgs2 mRNA levels in the uteri [1, 3]: no significant difference
- Enpp2, Lpar3 and ptgs2 mRNA levels in the uteri ([2]; compared with batch farrowing with FTAI group): significantly higher
- Enpp2, Lpar3 and ptgs2 mRNA levels in the uteri [2, 3]: no significant difference
